For 90 compounds, melting point results are on record in a melting point compilation (Tetko et al.; mined from patent text by program, amines drawn as free bases though some values may be those of a salt).

Molecules are shown by their SMILES.

As a reminder, the melting point is the temperature, or range, at which the solid turns liquid. The compound `O=[N+]([O-])c1cccc(-c2ccncc2)c1` displayed a melting point of 109 to 110 °C.
Compound `CC(C(=O)C(C)(C)CF)n1cncn1` (stereo not given) came in with a melting point of 62 to 78 °C.
`CCOC(=O)Cc1nc(-c2ccc(Cl)cc2)oc1Oc1ccc(Cl)cc1` had a melting point of 70 to 72 °C.
`Cn1c(C(F)(F)F)cc(=O)n(-c2cc(Oc3ccccc3OCC(=O)OC(C)(C)C)c(Cl)cc2F)c1=O` yielded a melting point of 55.6 °C.
As to `CCOC(=O)C(=O)Nc1cc(C)c(C(=O)OCC)s1`, the melting point lay in the range of 141 to 142 °C.
`CCOC(=O)c1c(N2CCN(C(=O)c3cccs3)CC2)c2sccc2[nH]c1=O` registered a melting point of 252 °C.
The result for `CC(=O)COc1ccc(C2CCCCC2)cc1` reads 58 °C.
The result for `Nc1cc(Cl)c(Oc2ccc(Cl)cc2)cc1C(=O)O` reads 160 to 170 °C; that for `COc1cc(OC)c2c(=O)[nH]c(-c3cccc(N4CCN(C(C)C)CC4)c3)nc2c1`, 251 to 253 °C; that for `CCCc1c(OCCCOc2ccc(N)cc2)ccc(C(C)=O)c1O`, 75 to 77 °C.
The result for `CS(=O)(=O)Nc1ccc(C(=O)CN(Cc2ccccc2)Cc2ccccc2)cc1` reads 131 to 134 °C; that for `Cc1ccc(C(=O)Nc2nc(-c3ccccc3)c(-c3nc4ccccc4c(=O)n3-c3ccc(Cl)cc3)s2)cc1`, over 275 °C.
Consider `COCC(C)Nc1cc(-c2ncnc(Nc3cccc(Cl)c3)n2)ccn1` (stereo not given), for which the melting point is 149 to 151 °C.
`COC(=O)c1ccc(O)c(C(=O)CC(=O)c2ccccc2OC(C)C)c1` yielded a melting point of 105 to 107 °C.
Compound `CCOC(=O)N1CCc2onc(Cl)c2C1` showed a melting point of 40 to 42 °C.
The same measure for `Cc1nnc2ccc(-c3ccc(C(C)(C)C)cc3)nn12`: 142 to 145 °C.
For `COc1ccc(CNc2cc(F)cc(CO)c2)cc1`, the melting point came to 93 °C.
The compound `Fc1ccccc1C(Cl)(c1ccccc1)c1ccccc1` returned a melting point of 134 to 135 °C.
In turn, `CCCCc1nnc(-c2ccco2)n1Cc1ccc([N+](=O)[O-])cc1` returned a melting point of 91 to 92.5 °C.
As for `CC=CC(=O)Nc1ccc(-c2ccncc2)cc1`, the melting point lay within 247 to 249 °C.
The compound `Cc1oc(-c2ccc(SC(F)(F)F)cc2)nc1CCOc1ccc(CN(O)C(N)=O)cc1` returned a melting point of 157 to 159 °C.
In turn, `COc1ccc(C(=O)Nc2c(Cl)cncc2Cl)c2c1OCC2CC(=O)NCc1ccc(F)cc1` (stereo not given) registered a melting point of 287 °C.
`Cc1csc(C(=O)N2CCCC2)c1-n1cccc1` came in with a melting point of 178 °C.
Consider `COc1cccc(-c2nc(C(=O)c3ccc(N)c(OC)c3)n3ccccc23)c1`, for which the melting point came to 210 °C.
The same measure for `O=[N+]([O-])c1ccc(OC2CCN(c3ccncc3)CC2)cc1`: 142 °C.
In the case of `O=C1NC(c2ccccc2)C2=C1N=C1N=CNN1C2` (stereo not given), the melting point was in the range of 262 to 264 °C.
Regarding `OCCNCC(O)c1cccc(OCc2ccccc2)c1` (stereo not given), the melting point came out at 114 °C.
Compound `CCC=C(CCC)c1c2c(nn1C)N(c1c(C)cc(C)cc1Cl)CCC2` returned a melting point of 86.7 to 88.2 °C.
With `COc1ccccc1C1C2CCC(C2)C12CCC(=S)N2` (stereo not given), the melting point was 194 °C.
In the case of `CCOC(=O)c1conc1-c1ccc(Cl)c(Cl)c1`, the melting point fell in the range of 129 to 130 °C.
For the compound `CCOC(=O)c1ccc(-c2cc(C(=O)OCC)c(N)[nH]2)cc1`, the melting point was in the range of 150 to 151 °C.
`O=c1ccoc2cc(OCCn3ccnc3)ccc12` came in with a melting point of 131 to 133 °C.
As for `Cc1noc2ncnc(NCCC(C)C)c12`, the melting point was 133 °C.
Regarding `O=C1N/C(=C\C2CC2)C(O)=C1c1ccccc1`, the melting point was in the range of 167 to 170 °C.
With `COc1ccc(C(=O)C=CC(=O)O)c(OC)c1OC`, the melting point came out at 100 °C.
In turn, `CC1Oc2ccc([N+](=O)[O-])cc2O1` (stereo not given) registered a melting point of 84 to 95 °C.
In turn, `COc1ccc2ccc(N3C(=O)C4=C(SCCO4)C3O)nc2n1` (stereo not given) returned a melting point of 222 °C.
In turn, `CNc1nc(C)c(-c2ccnc(Nc3cccc(CC(=O)OCCOC)c3)n2)s1` registered a melting point of 193 to 195 °C.
The same measure for `CCCCn1nc(CCC)nc1Cc1ccc(-c2ccccc2-c2nnn[nH]2)nc1`: 164 to 166 °C; for `CC(C)C(=O)Nc1ccc(Br)c(C(F)(F)F)c1`: 126 to 128 °C.
Turning to `CC(C)(C)OC(=O)N1C[C@@H](O)C[C@H]1C(=O)OCc1ccccc1`, the melting point fell in the range of 72 to 73 °C.
Turning to `CSc1ncc(CO)c(Nc2ccccc2)n1`, the melting point lay in the range of 142 to 143 °C.
The result for `COc1ccc(C(=O)Oc2ccc(C(=O)OCc3ccccc3)c(O)c2)cc1C12CC3CC(CC(C3)C1)C2` reads 171 to 172 °C; that for `O=C(OC1C(=O)NC1c1ccccc1)c1ccccc1` (stereo not given), 118 to 119 °C.
`CCCCCCCCC1N(C)c2cccc3cccc(c23)N1C` had a melting point of 62 to 63 °C.
In turn, `CC1(N2C(=O)c3cccc([N+](=O)[O-])c3C2=O)CCC(=O)NC1=O` (stereo not given) displayed a melting point of 265 to 266 °C.
The same measure for `CCCCN=C(N(CCCC)CCCC)N(CCCC)CCCC`: 100 to 102 °C; for `CNC(=O)N1C2c3ccccc3OCC2(C(=O)OC)CN1C(=O)Nc1ccc(C(F)(F)F)cc1` (stereo not given): 208 to 209 °C; for `O=C(O)CNC(=O)[C@H]1CC[C@H](C(=O)N2CCN(C3CCNCC3)CC2)CC1`: 260 to 270 °C.
`CSc1nc(C)ccc1NC(=O)CCCCCSc1nc2ccccc2[nH]1`: the melting point was in the range of 138 to 140 °C.
`CN(C)S(=O)(=O)c1cnc(NC(=O)[C@H](CC2CCCC2)c2ccc(S(C)(=O)=O)c(Cl)c2)cn1` showed a melting point of 100 °C.
Compound `CCCCCCC(CCC(=O)O)CC(=O)O` (stereo not given) came in with a melting point of 70 to 71 °C.
`CC(C)N1C(=O)NC2(CCN(C(=O)OC(C)(C)C)CC2)C1=O` returned a melting point of 206 to 208 °C.
For the compound `CC(C)=CCc1cc(C2Oc3c(CC=C(C)C)c(O)cc(O)c3C(=O)C2O)ccc1O` (stereo not given), the melting point is 95 to 96 °C.
The compound `Clc1ccc2c(c1)C(c1ccccc1Cl)=NCCN2C1=NCCS1` came in with a melting point of 123 to 124 °C.
Consider `COc1cc(-c2ncn(-c3ccc(C(F)(F)F)cc3)c2-c2ccc(N(C)C)cc2)cc(OC)c1OC`, for which the melting point fell in the range of 215 to 217 °C.
As to `N#Cc1c(N2CCc3ccccc3CC2)nc(CSc2ccccc2)[nH]c1=O`, the melting point is 189 to 194 °C.
Turning to `C=C1C(=O)C2CCC1(C)C2(C)C` (stereo not given), the melting point lay in the range of 69 to 75 °C.
In turn, `CCC1(CC)CN(C2CC3(C)C(CCC4C5CCC(C(C)=O)C5(C)CC(=O)C43)CC2O)CCO1` (stereo not given) gave a melting point of 177 to 179 °C.
The compound `NC(=O)c1nccn1C1Cc2cc(Br)ccc2C1=O` (stereo not given) had a melting point of 240 °C.
As for `Cn1cnc([N+](=O)[O-])c1CBr`, the melting point was in the range of 130 to 132 °C.
The result for `CC(=O)C1CCC2C3CCC4CC(C)(O)CCC4(C)C3C(=O)CC12C` (stereo not given) reads 175 °C; that for `Cc1c(F)c(N2CC[C@@H](C(C)(C)N)C2)cc2c1c(=O)c(C(=O)O)cn2-c1ccc(F)cc1F`, 156 to 158 °C.
The compound `Cc1ccc2c3c(ccc2n1)OCC(CN1C2CCC1CC(O)(c1cccc(C(F)(F)F)c1)C2)O3` (stereo not given) returned a melting point of 146 to 150 °C.
The result for `CN(C)C1(c2cccc(F)c2)CCC(=CC(=O)NCCc2c[nH]c3ccccc23)CC1` (stereo not given) reads 172 to 176 °C; that for `O=c1[nH][nH]c(=O)n1Cc1ccccc1`, 185 to 188 °C; that for `CC(=O)OCC1OC(n2cnc3c(O)nc(Nc4ccccc4)nc32)C(OC(C)=O)C1OC(C)=O` (stereo not given), 234 to 235 °C.
In turn, `Cc1c(-c2ccccc2)c(N2CCC(N(C)C)C2)c2oc(C(C)(C)CO)nc2c1C#N` (stereo not given) had a melting point of 175 to 178 °C.
The same measure for `C#CC1(O)CCC2(C)C(CCC3C4CCC(C(C)=O)C4(C)C=CC32)C1` (stereo not given): 147 to 150 °C.
In the case of `CCOC(=O)c1cc2cc(N(C)C)ccc2s1`, the melting point lay within 95 to 96 °C.
Consider `COCCOCC(=O)Nc1ccnn1-c1c(Cl)cc(C(F)(F)F)cc1Cl`, for which the melting point lay in the range of 158 to 160 °C.
Regarding `CCCOc1cc2c(c3c1OC(C)(C)C3)C(c1cccc(-c3ccncc3)c1)=NC(C)(C)C2`, the melting point was 132 to 134 °C.
With `CNc1nc(C)c(-c2ccc(Cl)c([N+](=O)[O-])c2)s1`, the melting point lay in the range of 220 to 232 °C.
The result for `CCn1cc(C(=O)O)c(=O)c2cc3oc(C(=O)O)cc3nc21` reads over 300 °C; that for `COc1cc2c(c(OC(C)=O)c1)C1CCC3(C)C(=O)C(Cl)CC3C1CC2` (stereo not given), 164 to 166 °C; that for `Cc1cn(-c2ccc(S(N)(=O)=O)c(F)c2)c(-c2ccc(-c3cscn3)cc2)n1`, 145 to 147 °C.
Take `CCCCc1nc(C(=O)O)c(C(=O)O)n1Cc1ccc(I)cc1`: the melting point was in the range of 98 to 99 °C.
On to `S=C1CCCC(c2ccc(Br)cc2)N1` (stereo not given), for which the melting point came out at 157 °C.
The compound `Cc1ccc(C(=O)OCCOC(=O)NC2(C(=O)O)CC2)cc1` returned a melting point of 178 to 182 °C.
Compound `C[C@@H](NC(=O)c1nc(-c2ccc(Cl)cc2)no1)[C@](O)(Cn1cncn1)c1ccc(F)cc1F` displayed a melting point of 170 to 172 °C.
The compound `CCCC1=C(Br)c2cc3c(cc2C1)OCO3` gave a melting point of 96 to 97 °C.
Compound `COc1cc2[nH]c(=O)c(-c3csc(-c4cccnc4)n3)c(N)c2cc1OC` showed a melting point of over 250 °C.
The same measure for `C=CCN1C(=O)COc2ccc(C3CC(=O)C(C(CC)=NOCC)=C(O)C3)cc21` (stereo not given): 79 to 83 °C; for `O=C(NCC12CC3CC(CC(C3)C1)C2)c1c(Cl)ccc2nc(N3CCC[C@@H]3C(=O)O)ccc12`: 157 to 160 °C.
`COc1cccc(OC)c1-c1cc(C(=O)NC2(C(=O)O)C3CC4CC(C3)CC2C4)nn1-c1ccc(C(=O)N(C)CCC(=O)O)cc1C(C)C` (stereo not given) registered a melting point of 166 to 168 °C.
On to `CC(C)CC1NC(C)(C)CNC1=O` (stereo not given), for which the melting point was 112 to 115 °C.
The compound `COC(=O)c1nc(-c2ccc(O)nc2)cc(N)c1Cl` gave a melting point of 251 to 252 °C.
`O=C(Nc1ccc2[nH]nnc2c1)N1CCN(c2nc(-c3ccccc3)ns2)CC1` came in with a melting point of 271 to 272 °C.
The compound `O=C(O)[C@@H](Cc1ccccc1)NS(=O)(=O)N1CCN(c2ccc(Cl)cc2)CC1` showed a melting point of 176 to 178 °C.
`COc1cc(Nc2c(C#N)cnc3cc(F)c(OCCN4CCOCC4)cc23)c(Cl)cc1Cl` displayed a melting point of 166 to 168 °C.
